Test results taken from patent publication US20200216439A1, “HETERO-1,5,6,7-TETRAHYDRO-4H-INDOL-4-ONES” (BAYER PHARMA AKTIENGESELLSCHAFT, priority 2015, published 2020).

These compounds were tested against T1, catalytic domain of human Bub1 (amino acids 704-1085) (Homo sapiens, UniProt O43683) (assay: Bub1 kinase assay (TR-FRET)). Details: TR-FRET; ATP 10 μM, peptide substrate 1 μM; 60 min at 22° C.; average or median if tested more than once; read-out: Inhibition of Bub1 kinase IC50.
T1 construct: catalytic domain of human Bub1 (amino acids 704-1085); His6 (N); made in house; host or cells: Hi5 insect cells
T1 sequence (O43683 704-1085): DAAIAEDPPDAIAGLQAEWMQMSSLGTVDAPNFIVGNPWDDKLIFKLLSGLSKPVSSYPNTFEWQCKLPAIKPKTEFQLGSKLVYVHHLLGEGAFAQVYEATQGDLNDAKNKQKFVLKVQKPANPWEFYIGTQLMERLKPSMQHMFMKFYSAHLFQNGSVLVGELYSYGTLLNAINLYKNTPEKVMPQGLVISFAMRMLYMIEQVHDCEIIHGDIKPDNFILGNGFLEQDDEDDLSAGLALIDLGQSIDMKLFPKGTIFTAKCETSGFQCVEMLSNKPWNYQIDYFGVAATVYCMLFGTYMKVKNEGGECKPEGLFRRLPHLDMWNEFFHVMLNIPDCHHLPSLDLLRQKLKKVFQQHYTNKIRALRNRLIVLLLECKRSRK
Type: biochemical
Method in brief: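 Eleven concentrations (0.1 nM–20 μM, duplicate) fitted by 4-parameter logistic for IC50. Read-out: EDTA-stopped TR-FRET (665/620 nm) detecting anti-phosphoserine binding to biotin-peptide (1 μM). Reaction used 10 μM ATP, 60 min at 22 °C, after 15 min compound preincubation with His-tagged human Bub1 704-1085.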

Structure (SMILES) | IC50 [nM]
CC(=O)Nc1cc(-c2[nH]c3c(c2Nc2ccccn2)C(=O)CN(C(=O)OC(C)(C)C)C3)ccn1 [Example 310, tert-Butyl 2-(2-acetamidopyridin-4-yl)-4-oxo-3-(pyridin-2-ylamino)-1,4,5,7-tetrahydro-6H-pyrrolo[2,3-c]pyridine-6-carboxylate] | 79
CC(=O)Nc1cc(-c2[nH]c3c(c2Nc2ccc(F)cc2)C(=O)CN(S(C)(=O)=O)C3)ccn1 [Example 311, N-(4-(3-[(4-Fluorophenyl)amino]-6-(methylsulfonyl)-4-oxo-4,5,6,7-tetrahydro-1H-pyrrolo[2,3-c]pyridin-2-yl)pyridin-2-yl)acetamide] | 4
CC(=O)Nc1cc(-c2[nH]c3c(c2Nc2ccc(C)cc2)C(=O)CN(C(=O)N(C)C)C3)ccn1 [Example 317, 2-[2-(Acetylamino)pyridin-4-yl]-N,N-dimethyl-3-[(4-methylphenyl)amino]-4-oxo-1,4,5,7-tetrahydro-6H-pyrrolo[2,3-c]pyridine-6-carboxamide] | 50
CC(=O)Nc1cc(-c2[nH]c3c(c2Nc2ccc(C)cc2)C(=O)CN(S(=O)(=O)C(C)C)C3)ccn1 [Example 318, N-(4-(3-[(4-Methylphenyl)amino]-4-oxo-(propan-2-ylsulfonyl)-1,5,6,7-tetrahydro-1H-pyrrolo[2,3-c]pyridin-2-yl)pyridin-2-yl)acetamide] | 31
CC(=O)Nc1cc(-c2[nH]c3c(c2Nc2ccc(C)cc2)C(=O)CN(C(C)=O)C3)ccn1 [Example 319, N-(4-(6-Acetyl-3-[(4-methylphenyl)amino]-4-oxo-4,5,6,7-tetrahydro-1H-pyrrolo[2,3-c]pyridin-2-yl)pyridin-2-yl)acetamide] | 192
COC(=O)N1CC(=O)c2c([nH]c(-c3ccnc(NC(C)=O)c3)c2Nc2ccc(C)cc2)C1 [Example 321, Methyl 2-[2-(acetylamino)pyridin-4-yl]-3-[(4-methylphenyl)amino]-4-oxo-1,4,5,7-tetrahydro-6H-pyrrolo[2,3-c]pyridine-6-carboxylate] | 113
CNS(=O)(=O)N1CC(=O)c2c([nH]c(-c3ccnc(NC(C)=O)c3)c2Nc2ccc(C)cc2)C1 [Example 322] | 41
CC(=O)Nc1cc(-c2[nH]c3c(c2Nc2ccc(C)cc2)C(=O)CN(C(=O)OC(C)C)C3)ccn1 [Example 323, Propan-2-yl 2-[2-(acetylamino)pyridin-4-yl]-3-[(4-methylphenyl)amino]-4-oxo-1,4,5,7-tetrahydro-6H-pyrrolo[2,3-c]pyridine-6-carboxylate] | 229

Second part, the compound after the results:

IC50 [nM] | Structure (SMILES)
16 | CC(=O)Nc1cc(-c2[nH]c3c(c2Nc2ccc(F)cc2)C(=O)CN(C(C)=O)C3)ccn1 [Example 312, N-(4-(6-Acetyl-3-[(4-fluorophenyl)amino]-4-oxo-4,5,6,7-tetrahydro-1H-pyrrolo[2,3-c]pyridin-2-yl)pyridin-2-yl)acetamide]
17 | CNC(=O)N1CC(=O)c2c([nH]c(-c3ccnc(NC(C)=O)c3)c2Nc2ccc(F)cc2)C1 [Example 313, 2-[2-(Acetylamino)pyridin-4-yl]-3-[(4-fluorophenyl)amino]-N-methyl-4-oxo-1,4,5,7-tetrahydro-6H-pyrrolo[2,3-c]pyridine-6-carboxamide]
8 | COC(=O)N1CC(=O)c2c([nH]c(-c3ccnc(NC(C)=O)c3)c2Nc2ccc(F)cc2)C1 [Example 314, Methyl 2-[2-(acetylamino)pyridin-4-yl]-3-[(4-fluorophenyl)amino]-4-oxo-1,4,5,7-tetrahydro-6H-pyrrolo[2,3-c]pyridine-6-carboxylate]
4 | CNS(=O)(=O)N1CC(=O)c2c([nH]c(-c3ccnc(NC(C)=O)c3)c2Nc2ccc(F)cc2)C1 [Example 315, N-(4-(3-[(4-Fluorophenyl)amino]-6-(methylsulfamoyl)-4-oxo-4,5,6,7-tetrahydro-1H-pyrrolo[2,3-c]pyridin-2-yl)pyridin-2-yl)acetamide]
25 | CC(=O)Nc1cc(-c2[nH]c3c(c2Nc2ccc(F)cc2)C(=O)CN(C(=O)OC(C)C)C3)ccn1 [Example 316, Propan-2-yl 2-[2-(acetylamino)pyridin-4-yl]-3-[(4-fluorophenyl)amino]-4-oxo-1,4,5,7-tetrahydro-6H-pyrrolo[2,3-c]pyridine-6-carboxylate]
178 | CNC(=O)N1CC(=O)c2c([nH]c(-c3ccnc(NC(C)=O)c3)c2Nc2ccc(C)cc2)C1 [Example 320, 2-[2-(Acetylamino)pyridin-4-yl]-N-methyl-3-[(4-methylphenyl)amino]-4-oxo-1,4,5,7-tetrahydro-6H-pyrrolo[2,3-c]pyridine-6-carboxamide]
